The text below walks through data of ChEMBL document CHEMBL1135703, “Synthesis and biological activity of a novel class of small molecular weight peptidomimetic competitive inhibitors of protein tyrosine phosphatase 1B” (2002).

The nature of assay [1]: Uptake of 2-deoxyglucose into L-6 myocytes, measurements were taken in absence of insulin (basal), assayed at 100 uM. The class given is functional.
Assay [2] is described as follows: Uptake of 2-deoxyglucose into L-6 myocytes, measurements were taken in presence of insulin (+ins), assayed at 100 uM. The class given is functional.
Assay [3] addresses T1, Tyrosine-protein phosphatase non-receptor type 1 (Homo sapiens) (UniProt P18031).
T1 sequence (whole entry): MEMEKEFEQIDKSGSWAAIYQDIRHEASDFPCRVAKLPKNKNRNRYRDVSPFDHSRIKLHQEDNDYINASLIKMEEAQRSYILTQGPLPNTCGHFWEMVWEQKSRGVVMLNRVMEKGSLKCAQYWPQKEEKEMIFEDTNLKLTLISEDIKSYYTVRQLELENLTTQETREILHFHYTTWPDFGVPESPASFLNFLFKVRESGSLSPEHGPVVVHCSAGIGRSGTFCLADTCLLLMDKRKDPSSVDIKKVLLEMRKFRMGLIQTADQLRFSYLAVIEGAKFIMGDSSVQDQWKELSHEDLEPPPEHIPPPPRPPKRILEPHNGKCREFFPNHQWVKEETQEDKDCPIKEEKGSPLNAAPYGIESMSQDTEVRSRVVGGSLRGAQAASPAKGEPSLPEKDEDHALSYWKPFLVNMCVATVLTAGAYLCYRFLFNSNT
The assay is described as follows: Percent inhibition of Protein Tyrosine Phosphatase 1B (PTP 1B) assayed at 100 uM.

For assay [4], the target named is Receptor-type tyrosine-protein phosphatase F (Homo sapiens) (UniProt P10586). The assay is described as follows: Percent inhibition of Protein-tyrosine phosphatase Lar assayed at 100 uM.
Assay [5] has as its target T2, Tyrosine-protein phosphatase non-receptor type 11 (Mus musculus) (UniProt P35235).
T2 sequence (whole entry): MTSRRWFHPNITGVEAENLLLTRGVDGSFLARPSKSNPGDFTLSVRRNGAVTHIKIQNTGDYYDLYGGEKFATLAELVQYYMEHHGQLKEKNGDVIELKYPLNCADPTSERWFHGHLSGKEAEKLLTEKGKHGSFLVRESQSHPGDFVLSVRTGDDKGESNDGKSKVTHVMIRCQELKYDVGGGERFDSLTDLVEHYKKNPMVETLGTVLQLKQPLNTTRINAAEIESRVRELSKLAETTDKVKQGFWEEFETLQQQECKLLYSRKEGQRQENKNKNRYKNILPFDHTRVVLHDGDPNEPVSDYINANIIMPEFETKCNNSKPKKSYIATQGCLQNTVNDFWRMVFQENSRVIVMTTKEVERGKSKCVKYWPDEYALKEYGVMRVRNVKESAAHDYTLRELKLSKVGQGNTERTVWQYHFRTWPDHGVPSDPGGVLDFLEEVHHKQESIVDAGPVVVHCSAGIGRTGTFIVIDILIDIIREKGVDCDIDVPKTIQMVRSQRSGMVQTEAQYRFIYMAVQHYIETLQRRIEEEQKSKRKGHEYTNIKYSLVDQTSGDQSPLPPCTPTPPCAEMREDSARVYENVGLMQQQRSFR
As to the kind of experiment: (§1) Percent inhibition of Tyrosine phosphatase SHP2 SH2 domain containing PTP involved in insulin uM. Details: concentration or dose not given beside the values. The settings on record: concentration not given here.

Assay [6] addresses T3, Tyrosine-protein phosphatase non-receptor type 1 (Rattus norvegicus) (UniProt P20417).
T3 sequence (whole entry): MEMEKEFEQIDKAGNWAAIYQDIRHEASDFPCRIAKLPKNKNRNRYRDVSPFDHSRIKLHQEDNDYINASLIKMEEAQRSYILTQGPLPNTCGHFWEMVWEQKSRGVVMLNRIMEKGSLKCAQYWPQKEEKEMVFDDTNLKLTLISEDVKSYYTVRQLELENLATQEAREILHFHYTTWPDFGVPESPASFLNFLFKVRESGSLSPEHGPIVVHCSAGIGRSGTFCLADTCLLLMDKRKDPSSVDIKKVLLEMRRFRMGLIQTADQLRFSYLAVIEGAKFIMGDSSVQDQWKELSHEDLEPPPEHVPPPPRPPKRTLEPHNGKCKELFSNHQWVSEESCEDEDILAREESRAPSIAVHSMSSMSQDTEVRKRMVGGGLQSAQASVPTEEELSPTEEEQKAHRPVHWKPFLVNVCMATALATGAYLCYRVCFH
The assay is described as follows: Percent inhibition of Protein-tyrosine phosphatase 1 (PTP) assayed at 100 uM.

Assay [7] addresses T2, Tyrosine-protein phosphatase non-receptor type 11 (Mus musculus). The assay is described as §1. The settings on record: concentration not given here.

Sequence of Receptor-type tyrosine-protein phosphatase F (Homo sapiens) (P10586 whole entry): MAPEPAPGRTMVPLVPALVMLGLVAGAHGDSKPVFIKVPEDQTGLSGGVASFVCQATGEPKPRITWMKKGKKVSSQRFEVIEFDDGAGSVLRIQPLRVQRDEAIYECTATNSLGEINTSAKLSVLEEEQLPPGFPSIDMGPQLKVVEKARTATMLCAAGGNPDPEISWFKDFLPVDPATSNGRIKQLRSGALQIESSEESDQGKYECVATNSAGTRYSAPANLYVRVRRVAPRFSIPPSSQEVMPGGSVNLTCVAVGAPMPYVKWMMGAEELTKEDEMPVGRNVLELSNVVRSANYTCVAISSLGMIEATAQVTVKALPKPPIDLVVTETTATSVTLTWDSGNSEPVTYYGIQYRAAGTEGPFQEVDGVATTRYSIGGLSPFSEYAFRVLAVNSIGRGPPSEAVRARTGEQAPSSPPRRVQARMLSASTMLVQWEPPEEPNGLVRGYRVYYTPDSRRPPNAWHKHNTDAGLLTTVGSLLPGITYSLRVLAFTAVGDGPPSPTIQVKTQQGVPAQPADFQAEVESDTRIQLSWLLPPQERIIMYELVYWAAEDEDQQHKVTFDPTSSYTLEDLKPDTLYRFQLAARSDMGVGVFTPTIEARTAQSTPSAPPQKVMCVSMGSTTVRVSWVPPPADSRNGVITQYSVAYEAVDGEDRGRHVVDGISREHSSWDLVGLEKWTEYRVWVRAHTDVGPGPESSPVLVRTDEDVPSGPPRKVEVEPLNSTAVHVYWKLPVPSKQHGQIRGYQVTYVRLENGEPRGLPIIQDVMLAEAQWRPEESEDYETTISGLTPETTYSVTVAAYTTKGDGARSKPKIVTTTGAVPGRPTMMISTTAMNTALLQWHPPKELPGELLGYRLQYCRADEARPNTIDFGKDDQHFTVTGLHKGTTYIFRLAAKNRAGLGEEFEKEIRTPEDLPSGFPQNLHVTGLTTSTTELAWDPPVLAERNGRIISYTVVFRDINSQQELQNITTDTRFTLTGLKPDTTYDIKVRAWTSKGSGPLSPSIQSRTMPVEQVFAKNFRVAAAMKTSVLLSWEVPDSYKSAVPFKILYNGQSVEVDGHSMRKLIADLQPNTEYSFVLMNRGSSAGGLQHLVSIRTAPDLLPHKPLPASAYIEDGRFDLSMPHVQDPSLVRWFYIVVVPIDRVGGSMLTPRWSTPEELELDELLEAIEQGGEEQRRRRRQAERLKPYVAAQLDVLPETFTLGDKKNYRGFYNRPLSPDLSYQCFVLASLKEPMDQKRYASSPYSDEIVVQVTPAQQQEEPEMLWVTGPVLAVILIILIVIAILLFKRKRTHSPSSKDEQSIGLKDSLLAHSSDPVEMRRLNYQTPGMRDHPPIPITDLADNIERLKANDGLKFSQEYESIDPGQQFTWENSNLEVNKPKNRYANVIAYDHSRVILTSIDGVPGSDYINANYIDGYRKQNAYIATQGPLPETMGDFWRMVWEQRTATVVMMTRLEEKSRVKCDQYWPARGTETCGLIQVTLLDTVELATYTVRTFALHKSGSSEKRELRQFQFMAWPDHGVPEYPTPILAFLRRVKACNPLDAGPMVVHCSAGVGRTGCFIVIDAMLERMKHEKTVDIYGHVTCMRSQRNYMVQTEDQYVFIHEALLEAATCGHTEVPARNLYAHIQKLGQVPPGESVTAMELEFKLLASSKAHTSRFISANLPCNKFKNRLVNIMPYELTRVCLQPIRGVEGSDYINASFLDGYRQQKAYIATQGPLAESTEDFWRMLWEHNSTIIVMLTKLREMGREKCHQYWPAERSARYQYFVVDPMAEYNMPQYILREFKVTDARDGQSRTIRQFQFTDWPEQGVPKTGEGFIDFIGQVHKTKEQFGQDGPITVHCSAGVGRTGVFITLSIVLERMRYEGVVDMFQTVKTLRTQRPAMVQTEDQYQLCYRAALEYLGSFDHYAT

As to `CCCCCNC(=O)C(Cc1ccc(OCC(=O)O)c(C(=O)O)c1)NC(=O)[C@H](Cc1ccccc1)NC(=O)CCC(=O)O` (some centres not stated), the “2-deoxyglucose uptake, % of control” value in assay [1] came out at 105%; in assay [2] it was 83%. Further, the inhibition in assay [3] was found to be 93%; in assay [4], 0%; in assay [5], 10%.

For the molecule `CCCCCNC(=O)[C@H](Cc1ccc(OCC(=O)O)c(C(=O)O)c1)NC(=O)[C@@H](Cc1ccccc1)NC(=O)OC(C)(C)C`, the “2-deoxyglucose uptake, % of control” value in assay [1] is reported as 107%; in assay [2] it was 89%. Moreover, the figures for the inhibition in assay [3], in assay [4] and in assay [5] were 19%, 0% and 0%, respectively.

`CCCCCNC(=O)C(Cc1ccc(OCC(N)=O)c(C(=O)O)c1)NC(=O)CCC(=O)O` (configuration not stated): the inhibition is 5% in assay [3], 16% in assay [6], 0% in assay [4] and 2% in assay [5].

`CCCCCNC(=O)C(Cc1ccc(OC(C(=O)O)C(=O)O)cc1)NC(=O)CCC(=O)O` (configuration not stated): the inhibition turned out to be 80% in assay [3], 76% in assay [6], 2% in assay [4] and 8% in assay [7].

For the molecule `CCCCCNC(=O)[C@H](Cc1ccc(OC(C(=O)O)C(=O)O)cc1)NC(=O)[C@H](Cc1ccc(C(=O)c2ccccc2)cc1)NC(=O)CCC(=O)O`, the inhibition is 98% in assay [3], 98% in assay [6], 26% in assay [4] and 71% in assay [5].

As for `CCCCCNC(=O)C(Cc1ccc(OC(C(=O)O)C(=O)O)cc1)NC(=O)[C@H](C)NC(=O)OC(C)(C)C` (some centres not stated), the inhibition was 83% in assay [3], 76% in assay [6], 0% in assay [4] and 3% in assay [5].

`CCCCCNC(=O)C(Cc1ccc(OS(=O)(=O)O)cc1)NC(=O)CCC(=O)O` (configuration not stated): the inhibition in assay [3] was 51%; in assay [6], 80%; in assay [4], 5%; in assay [7], 6%.

In the case of `CCCCCNC(=O)C(Cc1ccc(OCC(=O)O)c(C(=O)O)c1)NC(=O)CCC(=O)O` (configuration not stated), the inhibition in assay [3] amounted to 87%; in assay [6] it was 93%; in assay [4], 0%; in assay [5] it was 5%.

As for `CCCCCNC(=O)C(Cc1ccc(OC(C(=O)O)C(=O)O)cc1)NC(=O)[C@H](CC(=O)O)NC(=O)CCC(=O)O` (some centres not stated), the inhibition in assay [3] was found to be 95%; in assay [6], 96%; in assay [4], 7%; in assay [5], 25%.

Take `CCCCCNC(=O)C(Cc1ccc(OCC(=O)OC)c(C(=O)OC)c1)NC(=O)[C@H](Cc1ccccc1)NC(=O)OC(C)(C)C` (some centres not stated): the “2-deoxyglucose uptake, % of control” value in assay [1] is listed as 114%; in assay [2] it was 72%. The inhibition in assay [3] turned out to be 0%; in assay [4] it was 0%; in assay [5] it was 1%.

Consider `CCCCCNC(=O)C(Cc1ccc(OC(C(=O)O)C(=O)O)cc1)NC(=O)[C@H](Cc1ccccc1)NC(=O)CCC(=O)O` (some centres not stated), for which the inhibition in assay [3] worked out at 99%; in assay [6], 97%; in assay [4], 23%; in assay [5], 44%.

`CCCCCNC(=O)C(Cc1ccc(OCC(=O)OC)c(C(=O)OC)c1)NC(=O)[C@H](Cc1ccccc1)NC(=O)CCC(=O)OC` (some centres not stated): the “2-deoxyglucose uptake, % of control” value came to 225% in assay [1] and 77% in assay [2]. For the same molecule, the results for the inhibition in assay [3], in assay [4] and in assay [5] were 0%, 3% and 0%, respectively.

`CCCCCNC(=O)C(Cc1ccc(OC(C(=O)O)C(=O)O)cc1)NC(=O)[C@H](Cc1ccccc1)NC(=O)OC(C)(C)C` (some centres not stated): the inhibition in assay [3] was found to be 91%; in assay [6], 88%; in assay [4], 27%; in assay [5], 10%.

As to `CCCCCNC(=O)C(Cc1ccc(OCC(=O)O)c(C(=O)O)c1)NC(=O)[C@H](Cc1ccccc1)NC(=O)OC(C)(C)C` (some centres not stated), the “2-deoxyglucose uptake, % of control” value in assay [1] is listed as 81%; in assay [2], 108%. For the same molecule, the inhibition in assay [3] stood at 78%; in assay [6] it was 84%; in assay [4], 0%; in assay [5] it was 2%.
